{
  "source": "patent US4673671A",
  "about": "“Method for improving the absorption and effectiveness of a catecholamine compound” (SIMES Societa Italiana Medicinali e Sintetici S.p.A., priority 1984, dated 1987)",
  "key": {"[1]": {"test_system": "renal blood flow and renal vascular resistances", "assay": "Cardiovascular parameters (renal blood flow and renal vascular resistances) in anesthetized dogs, intraduodenal administration", "assay_type": "in vivo, dog", "settings": "for duration of effects on renal blood flow and resistances / selectivity and duration of renal effect (in words): 5 mg/kg; for renal vasodilating effect (in words): comparison of N-methyldopamine 4-O-dihydrogenphosphate with N-methyldopamine", "method": "The activity of N-methyldopamine 4-O-dihydrogenphosphate on cardiovascular parameters in anesthetized dogs was compared with that of N-methyldopamine; both compounds were administered by intraduodenal route."}, "[2]": {"test_system": "urine excretion", "assay": "Urine excretion in normally hydrated rats, oral administration", "assay_type": "in vivo, rat", "settings": "0.29 mmoles/kg; for increase of urine excretion: p<0.05", "source_text": "These diuretic properties are useful in the therapy of hypertension and cardiac and renal failure."}, "[3]": {"test_system": "blood pressure", "assay": "Blood pressure in spontaneous hypertensive rats, oral administration", "assay_type": "in vivo, rat", "source_text": "N,N-di-n-propyldopamine 4-O-dihydrogenphosphate reduced blood pressure by 30-35% (p<0.01) when orally administered to spontaneous hypertensive rats at a dose of 0.29 mmoles/kg; the effect lasted five hours while N,N-di-n-propyl dopamine was ineffective at the same dosage and also at 0.58 mmoles/kg."}, "[4]": {"settings": "anesthetized dogs, i.d., 0.005 mmoles/kg (1.25 mg/kg), n=6"}, "[5]": {"settings": "anesthetized dogs, i.d., 0.04 mmoles/kg (10 mg/kg), n=7, **P <0.01"}, "[6]": {"settings": "anesthetized dogs, i.d., 0.035 mmoles/kg (7.1 mg/kg), n=5"}},
  "data": [
    {"smiles": "CNCCc1ccc(OP(=O)(O)OC)c(O)c1", "note": "[N-methyldopamine 4-O-methylhydrogenphosphate]", "values": [
      {"measurement": "duration of effects on renal blood flow and resistances", "setting": "[1]", "result": "over 5 hours"},
      {"measurement": "increase of renal blood flow", "setting": "[1]; 5 mg/kg (0.019 mmole/kg)", "result": "+26%"},
      {"measurement": "reduction of renal resistances", "setting": "[1]; 5 mg/kg (0.019 mmole/kg)", "result": -19, "unit": "%"}
    ]},
    {"smiles": "CNCCc1ccc(O)c(OP(=O)(O)O)c1", "note": "[N-methyldopamine 3-O-dihydrogenphosphate]", "values": [
      {"measurement": "increase of urine excretion", "setting": "[2]", "result": 180, "unit": "%"}
    ]},
    {"smiles": "NCCc1ccc(O)c(O)c1", "note": "[dopamine, 1-(3,4-dihydroxyphenyl)-2-amino-ethane, reference compound]", "values": [
      {"measurement": "effect on renal blood flow and renal resistances (in words)", "setting": "[1]; 10 mg/kg (0.053 mmoles/kg)", "result": "ineffective"}
    ]},
    {"smiles": "N[C@@H](CCC(=O)NCCc1ccc(OP(=O)(O)O)c(O)c1)C(=O)O", "note": "[N^5-[2-(3,4-dihydroxyphenyl)-ethyl]-L-glutamine 4-O-dihydrogenphosphate]", "values": [
      {"measurement": "selectivity and duration of renal effect (in words)", "setting": "[1]", "result": "selective and long lasting"},
      {"measurement": "decrease in renal resistances", "setting": "[1]; 5 mg/kg (0.014 mmoles/kg)", "result": -18, "unit": "%"},
      {"measurement": "increase in renal blood flow", "setting": "[1]; 5 mg/kg (0.014 mmoles/kg)", "result": "+25%"}
    ]},
    {"smiles": "CNCCc1ccc(OP(=O)(O)O)c(O)c1", "note": "[N-methyldopamine 4-O-dihydrogenphosphate]", "values": [
      {"measurement": "duration of renal vasodilating action", "setting": "[1]; anesthetized dogs, i.d.", "result": "about four"},
      {"measurement": "modification of other hemodynamic parameters", "setting": "[1]; anesthetized dogs, i.d.", "result": "without any modification of other hemodynamic parameters"},
      {"measurement": "Maximum percentage variation of renal blood flow", "setting": "[1]; [4]", "result": "+14.2%"},
      {"measurement": "Maximum percentage variation of renal vascular resistances", "setting": "[1]; [4]", "result": -11.2, "unit": "%"},
      {"measurement": "Maximum percentage variation of renal vascular resistances", "setting": "[1]; anesthetized dogs, i.d., 0.01 mmoles/kg (2.5 mg/kg), n=6", "result": -14.1, "unit": "%"},
      {"measurement": "Maximum percentage variation of renal blood flow", "setting": "[1]; anesthetized dogs, i.d., 0.01 mmoles/kg (2.5 mg/kg), n=6, **P <0.01", "result": "+18.5%"},
      {"measurement": "Maximum percentage variation of renal blood flow", "setting": "[1]; anesthetized dogs, i.d., 0.02 mmoles/kg (5 mg/kg), n=7, **P <0.01", "result": "+36.4%"},
      {"measurement": "Maximum percentage variation of renal vascular resistances", "setting": "[1]; anesthetized dogs, i.d., 0.02 mmoles/kg (5 mg/kg), n=7, *P <0.05", "result": -24.5, "unit": "%"},
      {"measurement": "Maximum percentage variation of renal blood flow", "setting": "[1]; [5]", "result": "+31.7%"},
      {"measurement": "Maximum percentage variation of renal vascular resistances", "setting": "[1]; [5]", "result": -28.1, "unit": "%"},
      {"measurement": "renal vasodilating effect (in words)", "setting": "[1]; anesthetized dogs, i.d.", "result": "improved effectiveness, either in terms of activity or duration of action or selective renal vasodilating action"},
      {"measurement": "absorption", "setting": "[1]; i.d., compared with N-methyldopamine", "result": "improved absorption"},
      {"measurement": "increase of urine excretion", "setting": "[2]", "result": 170, "unit": "%"}
    ]},
    {"smiles": "CCOP(=O)(O)Oc1ccc(CCNC)cc1O", "note": "[N-methyldopamine 4-O-ethyl-hydrogenphosphate]", "values": [
      {"measurement": "duration of effects on renal blood flow and resistances", "setting": "[1]", "result": "over 5 hours"},
      {"measurement": "increase of renal blood flow", "setting": "[1]; 5 mg/kg (0.018 mmoles/kg)", "result": "+46%"},
      {"measurement": "reduction of renal resistances", "setting": "[1]; 5 mg/kg (0.018 mmoles/kg)", "result": -32, "unit": "%"}
    ]},
    {"smiles": "CCCN(CCC)CCc1ccc(O)c(O)c1", "note": "[N,N-di-n-propyl dopamine, N,N-di-n-propyldopamine, reference compound]", "values": [
      {"measurement": "effect on blood pressure (in words)", "setting": "[3]; 0.29 mmoles/kg", "result": "ineffective"},
      {"measurement": "effect on blood pressure (in words)", "setting": "[3]; 0.58 mmoles/kg", "result": "ineffective"}
    ]},
    {"smiles": "CNCCc1ccc(O)c(O)c1", "note": "[N-methyldopamine, reference compound]", "values": [
      {"measurement": "accompanying effect on blood pressure", "setting": "[1]; anesthetized dogs, i.d.", "result": "undesired increase of blood pressure"},
      {"measurement": "accompanying effect on the heart", "setting": "[1]; anesthetized dogs, i.d.", "result": "stimulation of the heart"},
      {"measurement": "duration of renal vasodilating action", "setting": "[1]; anesthetized dogs, i.d.", "result": "two"},
      {"measurement": "Maximum percentage variation of renal blood flow", "setting": "[1]; [6]", "result": "+14.9%"},
      {"measurement": "Maximum percentage variation of renal vascular resistances", "setting": "[1]; [6]", "result": -14, "unit": "%"},
      {"measurement": "renal vasodilating effect (in words)", "setting": "[1]; anesthetized dogs, i.d.", "result": "smaller effect"},
      {"measurement": "effect on urine excretion (in words)", "setting": "[2]", "result": "ineffective"}
    ]},
    {"smiles": "CCCN(CCC)CCc1ccc(OP(=O)(O)O)c(O)c1", "note": "[N,N-di-n-propyldopamine 4-O-dihydrogenphosphate]", "values": [
      {"measurement": "duration of blood pressure reduction", "setting": "[3]; 0.29 mmoles/kg", "result": "five"},
      {"measurement": "reduction of blood pressure", "setting": "[3]; 0.29 mmoles/kg, p<0.01", "result": "30-35%"}
    ]},
    {"smiles": "NCCc1ccc(OP(=O)(O)O)c(O)c1", "note": "[Dopamine 4-O-dihydrogenphosphate, dopamine 4-O-dihydrogenphosphate]", "values": [
      {"measurement": "selectivity and duration of renal effect (in words)", "setting": "[1]", "result": "selective and long lasting"},
      {"measurement": "decrease in renal resistances", "setting": "[1]; 5 mg/kg (0.02 mmoles/kg)", "result": -15, "unit": "%"},
      {"measurement": "increase in renal blood flow", "setting": "[1]; 5 mg/kg (0.02 mmoles/kg)", "result": "+14.5%"}
    ]}
  ]
}
